Data taken from ChEMBL document CHEMBL1208785, “Discovery of novel alpha7 nicotinic receptor antagonists” (Bioorg Med Chem Lett, 2010).

Molecular target: Neuronal acetylcholine receptor subunit alpha-7 (Rattus norvegicus) (UniProt Q05941)
Assay: Displacement of [125I]alpha-bungarotoxin from alpha7 nicotinic acetylcholine receptor in rat brain membrane at 10 uM
Format: cell membranes

Neuronal acetylcholine receptor subunit alpha-7 (Rattus norvegicus), sequence (Q05941 whole entry): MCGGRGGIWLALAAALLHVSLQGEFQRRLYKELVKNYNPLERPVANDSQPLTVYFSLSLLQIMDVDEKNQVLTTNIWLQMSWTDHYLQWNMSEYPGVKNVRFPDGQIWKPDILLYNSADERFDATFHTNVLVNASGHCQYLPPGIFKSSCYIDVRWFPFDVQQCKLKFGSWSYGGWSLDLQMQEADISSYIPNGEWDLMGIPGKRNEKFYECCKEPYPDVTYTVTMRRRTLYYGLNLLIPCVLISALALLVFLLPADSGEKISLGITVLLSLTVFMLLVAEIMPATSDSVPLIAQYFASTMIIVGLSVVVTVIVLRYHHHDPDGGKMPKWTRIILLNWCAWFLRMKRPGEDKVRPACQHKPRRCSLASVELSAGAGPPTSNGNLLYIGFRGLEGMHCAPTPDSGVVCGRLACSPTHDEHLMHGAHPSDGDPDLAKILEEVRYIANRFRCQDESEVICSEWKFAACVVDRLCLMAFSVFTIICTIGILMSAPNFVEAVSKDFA

| Compound | inhibition [%] |
| --- | --- |
| Cc1ccccc1Cn1cc(C(=O)NCC2CCN(CCc3ccccc3)CC2)nn1 | 25.2 |
| Cc1c(C(=O)NC2CCN(Cc3ccccc3)CC2)cnn1-c1ccc(Cl)cc1 | 64.1 |
| COc1ccc(Cn2cc(C(=O)NCC3CCN(CCc4ccccc4)CC3)nn2)cc1 | 9.5 |
| CCCc1c(C(=O)NC2CCN(C)CC2)cnn1-c1ccccc1 | 3.1 |
| CCCc1c(C(=O)NC2CCN(Cc3ccccc3)CC2)cnn1-c1ccccc1 | 83.8 |
| CC(C)CN1CCC(CN(C)C(=O)c2cn(Cc3cc(F)ccc3F)nn2)CC1 | 59.2 |
| Cc1ccc(-c2c(C(=O)N(C)C3CCN(C)CC3)cnn2-c2ccccc2)cc1 | 12.1 |
| COCCN1CCC(CNC(=O)c2cn(Cc3ccc(Cl)cc3)nn2)CC1 | 27.3 |
| CC(C)CN1CCC(CN(C)C(=O)c2cn(Cc3ccccc3Cl)nn2)CC1 | 72.3 |
| O=C(NCC1CCN(CCc2ccccc2)CC1)c1cn(Cc2ccc(Cl)cc2)nn1 | 18.3 |
| O=C(NCC1CCN(C2CCCC2)CC1)c1cn(Cc2ccccc2Cl)nn1 | 21.6 |
| Cc1c(C(=O)N(C)C2CCN(C)CC2)cnn1-c1ccc(F)cc1 | 11.9 |
| Cc1c(C(=O)N(C)C2CCN(C)CC2)cnn1-c1ccc(Cl)cc1 | 13.5 |
| CN1CCC(N(C)C(=O)c2cnn(-c3ccccc3-c3ccco3)c2C2CC2)CC1 | 10.5 |
| Cc1c(C(=O)NC2CCN(Cc3ccccc3)CC2)cnn1-c1ccc(F)cc1 | 50 |
| O=C(NCC1CCN(Cc2ccccc2)CC1)c1cn(Cc2ccc3ccccc3c2)nn1 | 70.5 |
| COCCN1CCC(CN(C)C(=O)c2cn(Cc3ccccc3Cl)nn2)CC1 | 43 |
| CCCc1c(C(=O)NC2CCNCC2)cnn1-c1ccccc1 | 1 |
| O=C(NCC1CCN(CCc2ccccc2)CC1)c1cn(Cc2ccccc2Cl)nn1 | 23.4 |
| Cc1ccc(-c2c(C(=O)NC3CCN(C)CC3)cnn2-c2ccccc2)cc1 | 23.4 |
